Structures can show the parent of a compound that is named as a salt.
Assays:
[1] = biological target: T1, CYP1A2 (Homo sapiens, UniProt P05177); assay: CYP inhibition profile; assay type: in vitro ADME; details: compound 10 μM
T1 sequence (P05177 1-516): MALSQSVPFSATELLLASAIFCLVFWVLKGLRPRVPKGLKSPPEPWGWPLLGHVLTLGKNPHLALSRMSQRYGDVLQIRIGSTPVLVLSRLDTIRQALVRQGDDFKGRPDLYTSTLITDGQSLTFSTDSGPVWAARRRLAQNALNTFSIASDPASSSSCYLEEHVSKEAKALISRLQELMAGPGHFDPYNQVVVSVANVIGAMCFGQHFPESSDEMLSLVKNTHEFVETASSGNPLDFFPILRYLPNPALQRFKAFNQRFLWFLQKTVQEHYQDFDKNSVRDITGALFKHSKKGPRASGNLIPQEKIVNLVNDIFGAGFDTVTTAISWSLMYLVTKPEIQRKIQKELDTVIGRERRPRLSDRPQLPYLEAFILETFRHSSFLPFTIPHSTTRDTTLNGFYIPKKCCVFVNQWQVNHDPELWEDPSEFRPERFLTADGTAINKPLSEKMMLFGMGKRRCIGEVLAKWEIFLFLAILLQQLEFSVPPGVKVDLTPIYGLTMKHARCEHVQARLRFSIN
Text: Table 3. CYP inhibition profile. | column: % inhibition / CYP1A2

[2] = system: 4T1 syngeneic mouse tumour model; assay: 4T1 syngeneic mouse tumour model efficacy; assay type: in vivo; details: 40 mg/kg orally once daily, day 14, 4T1 tumour in BALB/c mice
Experimental: Thus, we evaluated the anti-cancer efficacy in the 4T1 syngeneic mouse tumour model to test the therapeutic potential of 18p. We postulated the marginal amount of cGAMP released by tumour could initiate the synergy effect of 18p, then administrated the compound by single-treatment[5]. After 4T1 tumour cells were implanted and grown in the flank of mice, 18p was orally administered (40 mg/kg) once daily and monitored the tumour volume and body weight of each mouse.
Figure 7. 4 × 10^5 of 4T1 cells were subcutaneously inoculated into right side flank of BLAB/c mice (n = 6). Mice were orally administrated by 18p (40 mg/kg) or vehicle by every day. (a) Tumour growth curve of 18p or vehicle. X-axis indicates days after treatment. (b) Tumour growth (%) on day 14. (c) Body weight of 18p or vehicle. X-axis indicates days after treatment. Statistics for tumour volume and tumour growth were analysed by 2way ANOVA and student t-test. *p < 0.05. **p < 0.01. Graphs are depicted by mean and SD.
The study for murine 4T1 […] was approved by the Institutional Animal Care and Use Committee (IACUC) of the Korea Institute of Science and Technology (KIST-2021–04-048). Female BALB/c mice were 8 weeks obtained from DBL (Korea). […] Tumour volume was calculated by following formula: Tumour volume (mm^3) = 0.5 × [length, (mm) × width, (mm)2].

[3] = system: THP-1 cells; assay: cell viability assay (MTS); assay type: cell-based, human; details: all concentrations tested
Experimental: Cell viability assay was performed using residual cells after luciferase assay. Cells were analysed using CellTiter 96 Aqueous One Solution Proliferation Assay (MTS, Promega) according to the manufactural protocols. Absorbance signal were measured using microplate reader (TECAN). Results were normalized using DMSO as a control.

[4] = pharmacokinetics in BALB/c mice; assay type: in vivo
[5] = liver microsomal stability; assay type: in vitro ADME, rat; details: % remaining during 30 min at 1 µM

% inhibition CYP1A2 [1]: 12.0%
CI ([4]; IV, 1 mg/kg): 125 mL/min/kg
AUC ([4]; mouse, plasma, IV, 1 mg/kg): 126 ng·h/mL
AUC(0-t) ([4]; mouse, plasma, IV, 1 mg/kg): 125 ng·h/mL
Cmax ([4]; mouse, plasma, IV, 1 mg/kg): 303 ng/mL
Tmax ([4]; mouse, plasma, IV, 1 mg/kg): 4.98 min
half-life ([4]; mouse, plasma, IV, 1 mg/kg): 15 min
Vd ([4]; mouse, plasma, IV, 1 mg/kg, read-out: Vss): 2.3 L/kg
bioavailability ([4]; mouse, plasma, PO 10 mg/kg vs IV 1 mg/kg): > 100%
AUC ([4]; mouse, plasma, PO, 10 mg/kg): 1700 ng·h/mL
AUC(0-t) ([4]; mouse, plasma, PO, 10 mg/kg): 1690 ng·h/mL
Cmax ([4]; mouse, plasma, PO, 10 mg/kg): 1550 ng/mL
Tmax ([4]; mouse, plasma, PO, 10 mg/kg): 30 min
half-life ([4]; mouse, plasma, PO, 10 mg/kg): 93.6 min
Microsomal stability (%) Rat [5]: 96%
SMILES: CC1(CNS(N)(=O)=O)CCN(c2ncnc3[nH]ccc23)CC1 [18p, N-((4-Methyl-1-(7H-pyrrolo[2,3-d]pyrimidin-4-yl)piperidin-4-yl)methyl)methanesulfamide hydrochloride]
TGI [2]: 39%
cell viability / toxicity [3]: no obvious toxicity

From publication PMC9467556, “Identification of novel pyrrolopyrimidine and pyrrolopyridine derivatives as potent ENPP1 inhibitors” (Journal of Enzyme Inhibition and Medicinal Chemistry, 2022)
